Data: a melting point compilation (Tetko et al.; mined from patent text by program, amines drawn as free bases though some values may be those of a salt)

melting point [°C]	SMILES
47 to 48	CCCC[C@H]1[C@@H](O)CC[C@@]2(C)CC[C@@H]3C[C@]12OC3(C)C
54 to 55	COc1cc(C)nc(N=C=S)n1
107 to 108	O=Cc1ccc(Cl)c(OCCCC(=O)N(CCO)CCCCC2CCCC2)c1[N+](=O)[O-]
146	CCC(C)N(C)C(=O)c1cc2ccccc2c(-c2cccs2)n1 (centres undefined)
90 to 98	CCCCC(C)(C)C(O)CCN1C(=O)NC(=O)C1CCCCCCC(=O)O (centres undefined)
60.4 to 60.8	COc1ccc(-c2nccc3c(C)cccc23)cc1
240	Nc1nc2cc(Br)ccc2c2c1nc(CNC(=O)C1CC1)n2CC1CCOCC1
121 to 125	COc1ccc(CC#N)c2c1OCCO2
265 to 280	COc1cccc(NC(=O)NC2CC(c3ccccc3F)c3ccccc3N(CC(=O)NC(C)(C)C)C2=O)c1 (centres undefined)
271 to 274	O=C(CO)Nc1cc(-c2ccncc2)c[nH]c1=O
125 to 128	CCOCc1nc2c(N)nc3ccccc3c2n1NC(CC)CC
90 to 95	COc1nc(NC(=O)NS(=O)(=O)Cc2ccccc2C(C)OC(C)=O)nc(OC)n1 (centres undefined)
234 to 235	O=C(Nc1n[nH]c(=S)s1)NC(Cc1ccccc1)C(=O)NCc1cccc2ccccc12 (centres undefined)
103 to 106	CCCCCCCCCCCCCCOc1cccc(CC(=O)Nc2ccccc2CBr)c1
203 to 204	Cc1cc(C(=O)N2Cc3ccccc3Cc3ccccc32)ccc1N
96	CCCCCCCCCCCCCCCCCCOC(=O)c1cccc(NC(=O)NS(=O)(=O)c2ccc(C)cc2)c1

melting point [°C]	SMILES
230	O=C1CC(c2cccc(-n3ccnc3)c2)=Nc2cc(N3CCOC3=O)c(-c3ccc(F)cc3)cc2N1
224 to 226	CCNc1ccccc1Nc1c(C(=O)O)cnc2c1cnn2CC
164	CCCNc1c2c(nc3ccccc13)CCCC2O (centres undefined)
197 to 199	Cc1cc(Br)c(NC(=O)CBr)c(Br)n1
136	CC[Si](CC)(CC)c1ccccc1S(=O)(=O)NC(=O)Nc1nc(OC)cc(OC)n1
128 to 129	CCCC(CCC)NC(=O)c1ccc2oc(OCC)nc2c1
118 to 120	COC(=O)c1sc2cc(OC)ccc2c1C
45	CC1CCC(C)C1C(=O)O (centres undefined)
35 to 37	Cc1cc([N+](=O)[O-])ccc1NC1CC1
173 to 181	Cc1ccc(S(=O)(=O)Nc2ccccc2C(=O)NCCc2ncc[nH]2)cc1
71 to 84	COc1cc(C2CCN(C)CC2)ccc1Nc1ncc2ccc(-c3ccccc3OC)n2n1
130 to 131	C=CCc1cc2c(cc1O)CC(=O)N2CC
191 to 192	CS(=O)CC(=O)Nc1c(C(=O)c2ccccc2)[nH]c2cc(Cl)ccc12 (centres undefined)
195 to 198	COc1ccc(-c2nc3cc(Cl)c(Cl)cc3n2C(=O)OCc2ccccc2)cc1NS(=O)(=O)c1cccs1
127 to 128	O=C1COCc2cc(-c3ccccc3)ccc21
157 to 158	[N-]=[N+]=NCC1Cc2c(ccc3c2CCC(=O)N3)O1 (centres undefined)

Second part, the molecule before the results:

SMILES	melting point [°C]
CC(C)CC(=O)Nc1cccc(-c2ccnc3c(-c4cccc5cccnc45)cnn23)c1	96 to 99
CCCCCP(=S)(CCCCC)NP(=S)(CCCCC)CCCCC	59 to 63.5
COc1ccc(/C=C/C(=O)N(C)CC(O)CO)cc1 (centres undefined)	81 to 83
CCCCn1c(=O)c2c(Cl)cc(Cl)cc2n(Cc2ccccc2)c1=O	101 to 109
FC(F)(F)Oc1ccc(-n2cc(CBr)cn2)cc1	50 to 51
COc1ccc(-c2cc(C3CCN(C(=O)c4ccccc4)CC3)nc(N)n2)cc1	165 to 166
CN1C(=O)CN(C(=O)Cl)C(c2ccccc2)c2cc(Cl)ccc21 (single isomer, unassigned; (-))	201 to 204
COc1ccc(CCNC(=O)C(=O)Nc2ccncc2)cc1OC1CCCC1	182
CCCCCCCCCCCCc1nnn(C(C(=O)Nc2c(C(C)C)cccc2C(C)C)c2ccccc2)n1 (centres undefined)	93 to 95
O=c1ccc(-c2ccc(F)cc2)nn1CCF	145
CN(C(=O)c1nn(-c2ccc(Cl)cc2Cl)c(-c2ccc(Cl)cc2)c1F)N1CCCCC1	184
O=c1nc(-c2ccccn2)sc2ccc(OCc3ccccc3)cc12	198 to 199
Cc1ccc(N(C)S(=O)(=O)c2cccs2)c2[nH]c(-c3nccs3)cc12	159 to 160
COc1cccc(-c2ccc3c(c2)C(C)(C)C(=O)N3)c1	157 to 158
CCOc1ccc(-n2nnnc2C(F)(F)F)cc1C=O	87.9 to 88.4
COc1ccc(-c2[nH]nc3c2C(=O)c2c(NC(=O)Cc4ccc(NC(=O)CN(C)C)cc4)cccc2-3)cc1	> 300
CCOC(=O)CC1CN=C(c2cc3cc(OC(F)(F)F)cc(N(C)S(=O)(=O)c4cccs4)c3[nH]2)S1 (centres undefined)	93 to 94
COc1c(C)c(C)c2c(c1C)C(c1ccc(C=O)cc1)C(C)(C)O2 (centres undefined)	108 to 109
NS(=O)(=O)c1cc(C(=O)O)cc([N+](=O)[O-])c1Oc1cccc(C(F)(F)F)c1	210
CC(Cn1ncnn1)n1nnc2cc3c(=O)n(CC4CC4)nnc3cc2c1=O (centres undefined)	134 to 136
O=C(CCl)NCCCn1cc(-c2ccccc2)c2ccccc2c1=O	140
Cc1c(NC(=O)OCc2ccccc2)cccc1C(C[N+](=O)[O-])c1c[nH]c2cc(N3CCOCC3)ccc12 (centres undefined)	137
O=C(Nc1ccc(Cl)cn1)c1oc2ccc(C(=O)N3CCOCC3)cc2c1NC(=O)[C@H]1CC[C@H](N2CCCC2=O)CC1	253 to 255

SMILES	melting point [°C]
CCOC(=O)c1cnc2c(OCC)csc2c1O	223 to 224
C=C(C)C(=O)N1c2ccc(OC)cc2CC1C(=O)O (centres undefined)	108 to 111
Cc1[nH]c(C(=O)NCCCN(C)C)c(C)c1-c1nc2ccc(C(=O)c3ccccc3)cc2[nH]1	238 to 248
Cc1nc(N2CCN(CC3CC3)C2=O)sc1C(=O)NCc1ccccc1	142 to 143
CN1CCN(c2cc3c(Br)cccc3c(=O)[nH]2)CC1	240 to 241
Cc1cnc2c(Cl)nc3cc4ccccc4cc3n12	221 to 223
CCC(CC)c1nn(-c2ccc(C(F)(F)F)cn2)cc1CCCOc1c(CC(=O)O)ccnc1C	78 to 79
CNC1=NS(=O)(=O)N=C1NCCSCc1ccc(CN(C)C)o1	92 to 96
Cc1c(S(C)(=O)=O)c2ccccc2n1CC1=NCCN1	187 to 188
CSc1ccc(C2C(=O)c3ccccc3C2=O)cc1	153 to 155
Nc1ncnc2c1ncn2CCCCOCP(=O)(O)O	67
CON(C)C(=O)[C@@H](CO)NC(=O)OC(C)(C)C	115 to 116
CN(CCCOc1ccc(CC2SC(=O)NC2=O)cc1)c1nc2ccccc2o1 (centres undefined)	171 to 173
COc1cc(C(=O)NS(=O)(=O)c2ccccc2Cl)ccc1Cn1cc(/C=C/C(=O)N2CCCC2)c2ccc(/C=C/C(=O)N3CCCC3)cc21	291 to 293
CC(=O)Nc1c(C(=O)c2ccccc2)[nH]c2cc(C#N)ccc12	244 to 246
O=[N+]([O-])c1ccc(CCc2nnco2)cc1	93 to 94
CC(C)CC(S)C(=O)NC(C)(C)C(=O)NC(Cc1ccc(-c2cccs2)nc1)C(=O)O (centres undefined)	194 to 196
CCC[C@H]1C(=O)N(S(=O)(=O)c2ccc3ccccc3c2)[C@H]2CCN(S(C)(=O)=O)[C@H]12 (relative stereo)	257 to 260
COc1cc(C(=O)O)cc(OC)c1N(C)C	65 to 69
CC#CCOc1cc(Cc2cccc(F)c2)ncn1	51.5
O=C1CCC(c2ccc(Cl)c(Cl)c2)c2ccccc21 (centres undefined)	99 to 101
COc1ccc(CNC(=O)c2cc3c(=O)n(Cc4ccc([N+](=O)[O-])nc4)c(=O)n(C)c3s2)cc1	238 to 241
CCOCc1nc2c(N)nc3ccccc3c2n1CC1(O)CCN(C(=O)Nc2ccccc2)CC1	184 to 186

SMILES	melting point [°C]
CC(C)(C)OC(=O)C(ON1C(=O)c2ccccc2C1=O)c1ccccc1 (centres undefined)	121 to 122
CC(C)OC(=O)CC1SCN(c2ccc(Cl)c(Cl)c2)C1=O (centres undefined)	54 to 56
c1ccc(Cn2nc(-c3ccncc3)nc2-c2ccncc2)cc1	136 to 138
OC[C@@H]1O[C@H](n2c(NC3CC3)nc3c(Cl)c(Cl)c(Cl)cc32)[C@@H](O)[C@H]1O	208 to 209
O=c1[nH]c(=O)n(C2CC(F)C(CO)O2)cc1CO (centres undefined)	184
NC(=O)Cc1cccc2c(=O)cc(C3=CCCCC3)oc12	244 to 245
CN(C)CCSc1ccc2nccn2n1	52 to 54
C=C(C)COC1CC2C3CCC4=CC(=O)CCC4(C)C3(F)C(O)CC2(C)C1(O)C(=O)CO (centres undefined)	213 to 215
CCOC(=O)c1cc2c(C)ccc(NS(=O)(=O)c3cccs3)c2[nH]1	180 to 181
Fc1cc(CC2(Cc3ccncc3)c3cccnc3-c3ncccc32)ccn1	228 to 230
CCC1(C)CC2(NC(=O)N(C)C2=O)C(C)C(C)(CC)N1 (centres undefined)	137 to 142
CN(C=O)C1CCC(=O)c2ccccc21 (single isomer, unassigned; (+))	92 to 93
COC(=O)c1c(NC(C)=O)sc2c1CCCC2	103 to 106
CCCCCCCCCCCCNC(=O)COc1ccc(O)cc1[N+](=O)[O-]	150 to 151
Cc1noc(-c2cn(-c3cccc(Br)c3)cn2)n1	200 to 202
O=C(Nc1cccc2c(Cn3cnc4ccccc43)ccnc12)c1c(Cl)cccc1Cl	248 to 253
O=[N+]([O-])c1cnn(-c2c(Cl)cc(C(F)(F)F)cc2Cl)c1Cl	80 to 84
Cn1c(C(=O)OCc2ccccc2)c(-c2ccc(F)cc2)c2cccnc2c1=O	217 to 218
Cc1cccc(C(=O)Nc2c[nH]nc2C(=O)NCCOC(C)C)n1	150 to 151
O=C(CCl)Nc1ccc2c(c1NC(=O)c1ccccc1F)C(=O)c1ccccc1C2=O	245 to 246
CCc1nc(-c2ccccc2)n(CC(C)(OC)OC)c(=O)c1C	80 to 83
